Measurements taken from patent US20220354852A1, “TARGETING WNT SIGNALING FOR IMPROVED GLIOMA IMMUNOTHERAPY” (CITY OF HOPE, priority 2021, published 2022).

Experiments:
[1] = system: PBT147 and PBT030 glioma cell lines; test: Global proteomic analysis of PBT147 and PBT030; format: cell-based, human; conditions: 72 h
Procedure: FIG. 18. Proteomics analysis of PBT147 and PBT030 cell lines treated with ICG-001 (0-10 μM) for 72 h. (A) Protein density was calculated by the difference in log normalized levels for each protein between the four treated samples and the appropriate untreated sample. (B) Calculating the difference in log levels corresponds also to looking at the log of the fold changes in each protein. For both cell lines, the log fold-change for each protein at […] was plotted against the log fold-change at 10 μg. These plots are shown in A, with the points color-coded by cell line. This highlights a positive linear relationship between the log fold changes at 5 μg and 10 μg in both cell lines. […] The heatmap has been generated using Ward's method for clustering and the Manhattan (L1) distance. To highlight patterns of similar changes in regulation over cell lines and doses, rather than absolute differences in protein levels, quantile normalization has been used before creating the heatmap, with protein levels in each sample being normalized to that of a uniform distribution on −1≤x≤1.
FIG. 19 is a table showing a proteomics analysis at 72 hours for two cell lines (PB147, PB030) treated with ICG-001 in vitro at three doses (0 μg, 5 μg, 10 μg). 1557 proteins were quantified.
Proteomics data analysis. […] To examine the effect of the drug, the difference in log normalized levels for each protein between the four treated samples and the appropriate untreated sample was calculated, which corresponds to examining the log of the fold changes in each protein after treatment. For each of the two cell lines, the log fold change for each protein at 5 μg was plotted against the log fold change at 10 μg. These plots are shown in FIG. 17, with the points colored-coded by cell line. The line of (linear) regression is calculated and shown for each cell line.
The heatmap has been constructed by using Ward's method for clustering and the Manhattan (L1) distance. To highlight patterns of similar changes in regulation over cell-lines and doses, rather than absolute differences in protein levels, quantile normalization has been used before creating the heatmap, with protein levels in each sample being normalized those of a uniform distribution on −1≤x≤1.
Proteomics analyses of the PBT147 and PBT030 glioma cell lines after treatment with ICG-001 to elucidate targeted pathways in vitro. […]
To examine the effect of ICG-001, the difference in log-normalized levels was calculated for each protein between the four treated samples and the appropriate untreated samples (which corresponds to looking at the log of the fold changes in each protein). […] The line of (linear) regression is calculated and plotted for each cell line. […]

[2] = Tran and Zheng 2017; cited from earlier work
[3] = system: murine-derived glioma cell lines (K-luc, GL261-parental, and GL261.IL13Rα2 engineered); test: ICG-001 single agent on murine-derived glioma cell lines (growth kinetics); format: cell-based, mouse; conditions: ICG-001 0-10 μM, 4 days
Procedure: FIG. 11. (A, B) Growth kinetics of human PBT glioma lines (PBT017, PBT030, PBT135, PBT144, and PBT147) treated with ICG-001 (0-10 μM) for 7 days and (C) mouse glioma cells (GL261, GL261-IL13, and K-luc) treated with ICG-001 (0-10 μM) for 4 days. Red boxes indicate PBT030 and PBT147 cell lines used for Nanostring and proteomics analysis. Scale bars represent S.D. of triplicate samples. (D-F) Growth kinetics of PBT017 (2,500 cells/well) treated with or without HER2-CAR T cells (500 cells/well) and with or without ICG-001 (0-5 μM). The red line is CAR T cell treatment only and the bottom three lines are with ICG-001. Experiment was done in quadruplicate and error bars indicate S.D.
ICG-001 activity in vitro in human and mouse glioma cell lines. Initially, the effects of the specific CBP/β-catenin antagonist ICG-001 was tested in vitro as a single agent on human and mouse glioma cell lines (5 PBT human and 3 mouse glioma lines).

[4] = system: Wnt target genes BIRC5/Survivin and EphB2; test: Quantitative RT-PCR of Wnt target genes in human glioma cell lines; format: cell-based
Procedure: (§1) FIG. 15. Expression of target genes post-ICG-001 treatment (0-10 μM) by RT-PCR using (A-C) mouse Survivin in GL261-IL13, GL261, and K-luc cells. (D) Survivin in PBT147 human glioma cells. (E, F) Luciferase reporter assay indicating downregulation of Survivin/BIRC5 in PBT017 and PBT030 cell lines.
(§2) FIG. 16 is a table showing the expression of the target genes survivin/BIRC5 post-ICG-001 treatment ([…]) as detected by RT-PCR and Luciferase Reporter Assay.
(§3) ICG-001 differentially affects the expression of the Wnt target genes BIRC5/Survivin and EphB2 in vitro. […] The effects of ICG-001 on Wnt/CBP/β-catenin signaling were further confirmed using a Survivin-luciferase reporter assay (FIG. 15). ICG-001's selective effects on the expression of Survivin and EphB2 may serve as indicators of ICG-001 on target tissue activity in vivo (FIG. 16) and a readout for pharmacokinetics/pharmacodynamics (PK/PD) as used previously in clinical trials with the second-generation CBP/β-catenin specific antagonist PRI-724 (Anthony et al. 2013).

[5] = system: Survivin/BIRC5 (Wnt/CBP/β-catenin signaling); test: Survivin-luciferase reporter assay; format: cell-based, human; conditions: PBT017 and PBT030 cell lines
Procedure: as §1, §2, §3

[6] = system: tumor cell glycolytic activity; conditions: previously shown; cited from earlier work

## O=C1[C@H](Cc2ccc(O)cc2)N2C(=O)CCN(C(=O)NCc3ccccc3)[C@H]2CN1Cc1cccc2ccccc12 [ICG-001]
[1]; 5 μM versus 10 μM
  dose effect on protein fold change, PBT030 versus PBT147: significantly greater in PBT030 than PBT147
[1]; ICG-001 0, 5, and 10 μM
  HA and LDHA protein expression: loss
  PKM1 protein expression: increased
  protein translation: overall increase in protein translation
[2]
  blood-brain barrier crossing: cross the blood-brain barrier
[3]
  effect on cell growth (growth kinetics): concentration dependent cytostatic effect
[4]
  expression of Wnt/p300/β-catenin target gene EphB2: upregulating
[4]; ICG-001 0-10 μM
  expression of Wnt/CBP/β-catenin target gene BIRC5/Survivin: selectively downregulated
[5]
  Survivin/BIRC5 luciferase reporter activity: downregulation
[6]
  glycolytic activity and extracellular acidification of tumor cells: decrease in glycolytic activity and extracellular acidification
